# Measurements: the NIST ThermoML archive (doi:10.1021/je050050p)
# Numbers after ± are expanded uncertainties.
# Test: xn = mol fraction of the nth substance listed
# Details: Liquid, Vibrating tube method
smiles,measurement,setting,value
CN(C)C=O [dimethylformamide] + O=C=O,mass density,"332.98 K, 14003 kPa, x2 = 0.4268",937.07 ± 0.41 kg/m3
same,mass density,"332.98 K, 14011 kPa, x2 = 0.9311",761.83 ± 0.54 kg/m3
same,mass density,"332.98 K, 15006 kPa, x2 = 0.4268",938.28 ± 0.41 kg/m3
same,mass density,"332.98 K, 15009 kPa, x2 = 0.9311",776.41 ± 0.52 kg/m3
same,mass density,"332.98 K, 16024 kPa, x2 = 0.4268",939.46 ± 0.41 kg/m3
same,mass density,"332.98 K, 16030 kPa, x2 = 0.9311",789.22 ± 0.51 kg/m3
same,mass density,"332.98 K, 17017 kPa, x2 = 0.9311",800.11 ± 0.5 kg/m3
same,mass density,"332.98 K, 17036 kPa, x2 = 0.4268",940.67 ± 0.41 kg/m3
same,mass density,"332.98 K, 18002 kPa, x2 = 0.9311",809.93 ± 0.49 kg/m3
same,mass density,"332.98 K, 18017 kPa, x2 = 0.4268",941.85 ± 0.41 kg/m3
same,mass density,"332.98 K, 19025 kPa, x2 = 0.4268",943 ± 0.41 kg/m3
same,mass density,"332.98 K, 19031 kPa, x2 = 0.9311",819.29 ± 0.48 kg/m3
same,mass density,"332.98 K, 20004 kPa, x2 = 0.4268",944.1 ± 0.41 kg/m3
same,mass density,"332.98 K, 20025 kPa, x2 = 0.9311",827.57 ± 0.48 kg/m3
same,mass density,"332.98 K, 21001 kPa, x2 = 0.4268",945.19 ± 0.41 kg/m3
same,mass density,"332.98 K, 21030 kPa, x2 = 0.9311",835.37 ± 0.47 kg/m3
same,mass density,"332.98 K, 21993 kPa, x2 = 0.4268",946.33 ± 0.41 kg/m3
same,mass density,"332.98 K, 21994 kPa, x2 = 0.9311",842.35 ± 0.47 kg/m3
same,mass density,"332.98 K, 22998 kPa, x2 = 0.9311",849.15 ± 0.47 kg/m3
same,mass density,"332.98 K, 23015 kPa, x2 = 0.4268",947.45 ± 0.41 kg/m3
same,mass density,"332.98 K, 24024 kPa, x2 = 0.9311",855.75 ± 0.46 kg/m3
same,mass density,"332.98 K, 24114 kPa, x2 = 0.4268",948.62 ± 0.41 kg/m3
same,mass density,"332.98 K, 25011 kPa, x2 = 0.9311",861.78 ± 0.46 kg/m3
same,mass density,"332.98 K, 25061 kPa, x2 = 0.4268",949.68 ± 0.41 kg/m3
same,mass density,"332.99 K, 6007 kPa, x2 = 0.2876",926.13 ± 0.41 kg/m3
same,mass density,"332.99 K, 6998 kPa, x2 = 0.2876",927.15 ± 0.41 kg/m3
same,mass density,"332.99 K, 7991 kPa, x2 = 0.2876",928.18 ± 0.41 kg/m3
same,mass density,"332.99 K, 9011 kPa, x2 = 0.4461",930.78 ± 0.41 kg/m3
same,mass density,"332.99 K, 9021 kPa, x2 = 0.2876",929.22 ± 0.41 kg/m3
same,mass density,"332.99 K, 9993 kPa, x2 = 0.4461",931.95 ± 0.41 kg/m3
same,mass density,"332.99 K, 10024 kPa, x2 = 0.2876",930.23 ± 0.41 kg/m3
same,mass density,"332.99 K, 11006 kPa, x2 = 0.2876",931.19 ± 0.41 kg/m3
same,mass density,"332.99 K, 11013 kPa, x2 = 0.4461",933.65 ± 0.41 kg/m3
same,mass density,"332.99 K, 12003 kPa, x2 = 0.4461",934.9 ± 0.41 kg/m3
same,mass density,"332.99 K, 12020 kPa, x2 = 0.2876",932.19 ± 0.41 kg/m3
same,mass density,"332.99 K, 13012 kPa, x2 = 0.4461",936.18 ± 0.41 kg/m3
same,mass density,"332.99 K, 13024 kPa, x2 = 0.2876",933.16 ± 0.41 kg/m3
same,mass density,"332.99 K, 13991 kPa, x2 = 0.4461",937.43 ± 0.41 kg/m3
same,mass density,"332.99 K, 14028 kPa, x2 = 0.2876",934.12 ± 0.41 kg/m3
same,mass density,"332.99 K, 15009 kPa, x2 = 0.4461",938.71 ± 0.41 kg/m3
same,mass density,"332.99 K, 15010 kPa, x2 = 0.2876",935.07 ± 0.41 kg/m3
same,mass density,"332.99 K, 16010 kPa, x2 = 0.2876",936.01 ± 0.41 kg/m3
same,mass density,"332.99 K, 16010 kPa, x2 = 0.4461",939.93 ± 0.41 kg/m3
same,mass density,"332.99 K, 17001 kPa, x2 = 0.4461",941.16 ± 0.41 kg/m3
same,mass density,"332.99 K, 17003 kPa, x2 = 0.2876",936.96 ± 0.41 kg/m3
same,mass density,"332.99 K, 17994 kPa, x2 = 0.4461",942.35 ± 0.41 kg/m3
same,mass density,"332.99 K, 18005 kPa, x2 = 0.2876",937.87 ± 0.41 kg/m3
same,mass density,"332.99 K, 18988 kPa, x2 = 0.4461",943.52 ± 0.41 kg/m3
same,mass density,"332.99 K, 19008 kPa, x2 = 0.2876",938.78 ± 0.41 kg/m3
same,mass density,"332.99 K, 20001 kPa, x2 = 0.4461",944.69 ± 0.41 kg/m3
same,mass density,"332.99 K, 20007 kPa, x2 = 0.2876",939.69 ± 0.41 kg/m3
same,mass density,"332.99 K, 20995 kPa, x2 = 0.4461",945.88 ± 0.41 kg/m3
same,mass density,"332.99 K, 21004 kPa, x2 = 0.2876",940.6 ± 0.41 kg/m3
same,mass density,"332.99 K, 21990 kPa, x2 = 0.2876",941.48 ± 0.41 kg/m3
same,mass density,"332.99 K, 21998 kPa, x2 = 0.4461",947.03 ± 0.41 kg/m3
same,mass density,"332.99 K, 23023 kPa, x2 = 0.4461",948.19 ± 0.41 kg/m3
same,mass density,"332.99 K, 23037 kPa, x2 = 0.2876",942.42 ± 0.41 kg/m3
same,mass density,"332.99 K, 23982 kPa, x2 = 0.4461",949.27 ± 0.41 kg/m3
same,mass density,"332.99 K, 24000 kPa, x2 = 0.2876",943.28 ± 0.41 kg/m3
same,mass density,"332.99 K, 24996 kPa, x2 = 0.2876",944.13 ± 0.41 kg/m3
same,mass density,"332.99 K, 25021 kPa, x2 = 0.4461",950.44 ± 0.41 kg/m3
same,mass density,"333 K, 7019 kPa, x2 = 0.4502",928.11 ± 0.41 kg/m3
same,mass density,"333 K, 8001 kPa, x2 = 0.4502",929.45 ± 0.41 kg/m3
same,mass density,"333 K, 8029 kPa, x2 = 0.4068",930.01 ± 0.41 kg/m3
same,mass density,"333 K, 9015 kPa, x2 = 0.4502",930.81 ± 0.41 kg/m3
same,mass density,"333 K, 9016 kPa, x2 = 0.4068",931.23 ± 0.41 kg/m3
same,mass density,"333 K, 10008 kPa, x2 = 0.4068",932.42 ± 0.41 kg/m3
same,mass density,"333 K, 10013 kPa, x2 = 0.4502",932.14 ± 0.41 kg/m3
same,mass density,"333 K, 11006 kPa, x2 = 0.4502",933.42 ± 0.41 kg/m3
same,mass density,"333 K, 11025 kPa, x2 = 0.4068",933.65 ± 0.41 kg/m3
same,mass density,"333 K, 12004 kPa, x2 = 0.4502",934.74 ± 0.41 kg/m3
same,mass density,"333 K, 12006 kPa, x2 = 0.4068",934.81 ± 0.41 kg/m3
same,mass density,"333 K, 13019 kPa, x2 = 0.4068",936.04 ± 0.41 kg/m3
same,mass density,"333 K, 13021 kPa, x2 = 0.4502",936.04 ± 0.41 kg/m3
same,mass density,"333 K, 14010 kPa, x2 = 0.4068",937.15 ± 0.41 kg/m3
same,mass density,"333 K, 14019 kPa, x2 = 0.4502",937.31 ± 0.41 kg/m3
same,mass density,"333 K, 15001 kPa, x2 = 0.4502",938.54 ± 0.41 kg/m3
same,mass density,"333 K, 15002 kPa, x2 = 0.4068",938.28 ± 0.41 kg/m3
same,mass density,"333 K, 16010 kPa, x2 = 0.4068",939.41 ± 0.41 kg/m3
same,mass density,"333 K, 16014 kPa, x2 = 0.4502",939.78 ± 0.41 kg/m3
same,mass density,"333 K, 16998 kPa, x2 = 0.4068",940.54 ± 0.41 kg/m3
same,mass density,"333 K, 17013 kPa, x2 = 0.4502",941.01 ± 0.41 kg/m3
same,mass density,"333 K, 18013 kPa, x2 = 0.4068",941.67 ± 0.41 kg/m3
